Source: ChEMBL document CHEMBL1201862, “PubChem BioAssay data set” (2004)
Calls of active or inactive are those of the source.

Legend:
[1] = biological target: T1, Heat shock factor protein 1 (Mus musculus, UniProt P38532); experiment: decrease of HSF1-responsive luciferase luminescence – cell-based, NIH3T3, dose retest, confirmation (AID 2382); assay type: functional;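 also: NIH3T3 fibroblasts with HSF1-driven luciferase reporter stressed by proteasome inhibitor MG132; luminescence from HSF1-driven luciferase expression after 8 hours of MG132 stress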
T1 sequence (P38532 whole entry): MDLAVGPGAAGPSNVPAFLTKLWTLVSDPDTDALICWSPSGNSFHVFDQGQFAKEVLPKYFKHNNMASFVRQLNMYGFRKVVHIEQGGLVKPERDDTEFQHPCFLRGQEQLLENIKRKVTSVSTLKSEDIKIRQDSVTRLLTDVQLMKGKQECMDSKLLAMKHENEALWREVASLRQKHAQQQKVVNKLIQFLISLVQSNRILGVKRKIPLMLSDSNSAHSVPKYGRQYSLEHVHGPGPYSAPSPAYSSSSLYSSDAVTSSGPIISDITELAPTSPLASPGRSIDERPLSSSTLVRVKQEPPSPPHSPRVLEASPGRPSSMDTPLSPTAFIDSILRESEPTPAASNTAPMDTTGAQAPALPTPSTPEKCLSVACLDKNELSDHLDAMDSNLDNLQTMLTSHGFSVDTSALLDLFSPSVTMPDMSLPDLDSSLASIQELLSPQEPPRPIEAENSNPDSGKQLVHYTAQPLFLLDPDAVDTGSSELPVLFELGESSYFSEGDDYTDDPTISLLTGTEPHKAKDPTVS

[2] = Luminescence-based counterscreen assay for KLF5 inhibitors: dose response cell-based high throughput screening assay to identify cytotoxic compounds using the IEC-6 intestinal epithelial cell line. [Related pubchem assays: 1700 (Primary screen.), 1834 (Confirmation screen.), 1858 (Summary AID.), 1905 (Counterscreen.)]; assay type: functional
[3] = biological target: T2, Induced myeloid leukemia cell differentiation protein Mcl-1 (Homo sapiens, UniProt Q07820); assay type: functional
T2 sequence (Q07820 whole entry): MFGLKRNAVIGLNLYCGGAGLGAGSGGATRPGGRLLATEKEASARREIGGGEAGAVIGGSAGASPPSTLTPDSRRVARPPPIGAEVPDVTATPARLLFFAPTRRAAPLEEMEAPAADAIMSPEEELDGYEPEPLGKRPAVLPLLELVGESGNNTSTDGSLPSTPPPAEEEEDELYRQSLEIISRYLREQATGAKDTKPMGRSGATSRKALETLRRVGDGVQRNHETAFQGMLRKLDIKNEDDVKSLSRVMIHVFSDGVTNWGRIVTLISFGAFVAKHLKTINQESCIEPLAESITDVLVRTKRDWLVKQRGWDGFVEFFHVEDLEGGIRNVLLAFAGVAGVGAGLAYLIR

Tumor necrosis factor = Tumor necrosis factor (Homo sapiens, UniProt P01375); experiment: analog potency on TNFa NF-kB signaling – cell-based, revised, SAR follow-up (AID 2337); assay type: functional
Chain of Tumor necrosis factor (P01375 whole entry, the tested form may be a part): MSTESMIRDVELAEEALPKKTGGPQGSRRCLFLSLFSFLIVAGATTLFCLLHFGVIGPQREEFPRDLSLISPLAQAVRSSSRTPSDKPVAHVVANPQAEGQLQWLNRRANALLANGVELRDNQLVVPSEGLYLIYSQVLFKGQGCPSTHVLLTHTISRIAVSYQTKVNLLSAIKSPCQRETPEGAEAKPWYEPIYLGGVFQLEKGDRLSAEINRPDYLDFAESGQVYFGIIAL

[4] = biological target: Nucleotide-binding oligomerization domain-containing protein 1 (Homo sapiens, UniProt Q9Y239); experiment: blockers of NOD1 pathway activity – revised, SAR follow-up (AID 2333); assay type: functional
[5] = biological target: T3, COUP transcription factor 2 (Homo sapiens, UniProt P24468); experiment: Luminescence-based cell-based high throughput dose response assay to identify inhibitors of COUP-TFII (NR2F2).; assay type: functional;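 also: HEK293 cells transiently cotransfected with COUP-TFII expression vector and reporter; luciferase reporter luminescence driven by COUP-TFII from the pX2-168 reporter plasmid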
T3 sequence (P24468 whole entry): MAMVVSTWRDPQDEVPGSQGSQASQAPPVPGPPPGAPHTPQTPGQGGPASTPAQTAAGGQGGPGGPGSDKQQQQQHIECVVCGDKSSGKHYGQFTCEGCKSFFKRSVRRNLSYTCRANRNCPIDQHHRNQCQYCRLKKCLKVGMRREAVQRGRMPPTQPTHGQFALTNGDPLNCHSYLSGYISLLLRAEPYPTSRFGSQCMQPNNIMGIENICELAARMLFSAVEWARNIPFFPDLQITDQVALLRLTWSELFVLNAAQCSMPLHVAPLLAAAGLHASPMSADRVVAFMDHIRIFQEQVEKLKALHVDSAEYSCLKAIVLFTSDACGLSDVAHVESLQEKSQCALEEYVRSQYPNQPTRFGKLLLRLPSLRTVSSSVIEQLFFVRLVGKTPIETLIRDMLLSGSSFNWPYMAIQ

HEK293 = experiment: cells; details: Homo sapiens;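 also: cells exposed to compound for 14 hours overnight before viability readout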
[6] = biological target: T4, Mannose-6-phosphate isomerase (Homo sapiens, UniProt P34949); experiment: phosphomannose isomerase inhibition – biochemical, fluorescence intensity, confirmation (AID 1535)
T4 sequence (P34949 whole entry): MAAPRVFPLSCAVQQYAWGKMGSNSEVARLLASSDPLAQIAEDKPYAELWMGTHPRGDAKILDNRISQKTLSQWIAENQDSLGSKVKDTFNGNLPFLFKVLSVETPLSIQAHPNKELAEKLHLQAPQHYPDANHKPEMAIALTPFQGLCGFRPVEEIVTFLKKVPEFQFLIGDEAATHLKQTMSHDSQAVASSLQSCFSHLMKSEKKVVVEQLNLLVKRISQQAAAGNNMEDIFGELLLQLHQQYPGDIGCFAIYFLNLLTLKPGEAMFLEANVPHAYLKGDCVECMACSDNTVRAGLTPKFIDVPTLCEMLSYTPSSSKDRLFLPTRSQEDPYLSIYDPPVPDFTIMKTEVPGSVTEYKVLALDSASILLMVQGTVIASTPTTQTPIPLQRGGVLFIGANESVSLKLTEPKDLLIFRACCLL

Phosphomannomutase 2 = Phosphomannomutase 2 (Homo sapiens, UniProt O15305); experiment: Counter screen SAR assay for PMM2 inhibitors via a fluorescence intensity assay. [Related pubchem assays (depositor defined):AID1545, AID1574]
Chain of Phosphomannomutase 2 (O15305 whole entry, the tested form may be a part): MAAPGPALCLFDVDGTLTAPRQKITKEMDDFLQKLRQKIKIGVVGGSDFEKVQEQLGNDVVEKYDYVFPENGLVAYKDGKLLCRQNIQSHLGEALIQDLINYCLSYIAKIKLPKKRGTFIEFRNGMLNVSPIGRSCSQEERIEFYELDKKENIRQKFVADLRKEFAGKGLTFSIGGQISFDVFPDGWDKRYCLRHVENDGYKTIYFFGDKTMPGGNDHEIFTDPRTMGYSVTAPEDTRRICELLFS

[7] = biological target: Envelope glycoprotein gp160 (Human immunodeficiency virus 1, UniProt Q6QLK5); experiment: cell-free HIV fusion peptide-binding blockers – biochemical, uHTS, fluorescence dequenching, […] (AID 1986)
Chain of Envelope glycoprotein gp160 (Q6QLK5 whole entry, the tested form may be a part): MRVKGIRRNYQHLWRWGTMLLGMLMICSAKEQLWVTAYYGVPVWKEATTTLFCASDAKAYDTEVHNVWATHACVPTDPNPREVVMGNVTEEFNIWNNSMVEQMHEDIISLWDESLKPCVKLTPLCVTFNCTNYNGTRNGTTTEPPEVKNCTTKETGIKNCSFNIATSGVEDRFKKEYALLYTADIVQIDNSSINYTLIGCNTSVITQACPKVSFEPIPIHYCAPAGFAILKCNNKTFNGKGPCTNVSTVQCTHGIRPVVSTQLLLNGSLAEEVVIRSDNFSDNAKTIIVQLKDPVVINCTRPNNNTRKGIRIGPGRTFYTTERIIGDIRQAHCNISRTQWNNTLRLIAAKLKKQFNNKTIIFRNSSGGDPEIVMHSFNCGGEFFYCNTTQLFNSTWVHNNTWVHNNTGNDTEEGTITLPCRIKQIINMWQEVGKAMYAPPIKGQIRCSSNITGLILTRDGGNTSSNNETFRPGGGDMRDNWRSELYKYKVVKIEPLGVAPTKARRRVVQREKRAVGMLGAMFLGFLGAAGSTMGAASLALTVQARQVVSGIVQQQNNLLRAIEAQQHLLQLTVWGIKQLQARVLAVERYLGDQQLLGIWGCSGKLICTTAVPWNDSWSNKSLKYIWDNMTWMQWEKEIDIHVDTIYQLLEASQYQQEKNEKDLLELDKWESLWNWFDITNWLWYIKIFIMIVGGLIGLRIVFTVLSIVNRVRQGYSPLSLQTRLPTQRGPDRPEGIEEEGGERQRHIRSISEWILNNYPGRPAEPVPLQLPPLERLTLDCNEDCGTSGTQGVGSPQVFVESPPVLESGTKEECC

[8] = biological target: T5, Tyrosine-protein phosphatase non-receptor type 22 (Homo sapiens, UniProt Q9Y2R2); experiment: LYP1 Fluorescent Assay using OMFP substrate for In Vitro dose response studies. [Related pubchem assays (depositor defined):AID1779, AID1784, AID435024]
T5 sequence (Q9Y2R2 whole entry): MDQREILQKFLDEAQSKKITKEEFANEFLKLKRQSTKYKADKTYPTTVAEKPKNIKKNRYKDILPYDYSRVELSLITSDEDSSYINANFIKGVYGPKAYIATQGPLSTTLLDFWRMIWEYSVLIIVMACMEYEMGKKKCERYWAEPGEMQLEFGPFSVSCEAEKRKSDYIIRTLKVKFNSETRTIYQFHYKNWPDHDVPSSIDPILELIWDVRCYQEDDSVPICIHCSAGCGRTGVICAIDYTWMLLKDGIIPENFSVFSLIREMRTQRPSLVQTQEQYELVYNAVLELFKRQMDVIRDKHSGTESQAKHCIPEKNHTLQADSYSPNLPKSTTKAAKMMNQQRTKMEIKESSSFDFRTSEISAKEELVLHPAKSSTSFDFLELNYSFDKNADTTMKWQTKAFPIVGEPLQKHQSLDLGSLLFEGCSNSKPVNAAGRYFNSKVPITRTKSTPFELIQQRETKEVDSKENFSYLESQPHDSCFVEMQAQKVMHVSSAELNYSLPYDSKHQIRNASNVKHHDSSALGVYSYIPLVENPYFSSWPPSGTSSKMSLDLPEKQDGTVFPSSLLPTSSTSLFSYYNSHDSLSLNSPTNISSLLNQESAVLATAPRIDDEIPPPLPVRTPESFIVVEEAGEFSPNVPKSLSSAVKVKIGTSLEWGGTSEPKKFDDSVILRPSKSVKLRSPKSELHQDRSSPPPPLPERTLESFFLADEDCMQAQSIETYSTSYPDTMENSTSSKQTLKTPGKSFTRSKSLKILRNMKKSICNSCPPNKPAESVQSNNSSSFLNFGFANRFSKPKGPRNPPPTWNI

[9] = biological target: T6, Tyrosine-protein phosphatase non-receptor type 7 (Homo sapiens, UniProt P35236); assay type: functional
T6 sequence (P35236 whole entry): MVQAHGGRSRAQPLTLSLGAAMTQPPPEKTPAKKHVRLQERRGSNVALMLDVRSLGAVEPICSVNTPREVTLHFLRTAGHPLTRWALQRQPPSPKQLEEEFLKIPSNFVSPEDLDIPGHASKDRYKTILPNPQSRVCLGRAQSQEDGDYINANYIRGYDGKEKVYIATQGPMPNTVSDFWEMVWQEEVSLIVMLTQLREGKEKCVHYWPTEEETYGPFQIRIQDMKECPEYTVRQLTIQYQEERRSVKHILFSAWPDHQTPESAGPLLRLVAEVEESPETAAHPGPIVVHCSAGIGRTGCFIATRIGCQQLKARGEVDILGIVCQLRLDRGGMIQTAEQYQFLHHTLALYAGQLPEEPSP

[10] = biological target: T6, Tyrosine-protein phosphatase non-receptor type 7; experiment: HTS HePTP Fluorescent Assay using OMFP substrate for In Vitro dose response studies. [Related pubchem assays (depositor defined):AID1059, AID1077, AID1784, AID2068, AID2085, AID435032, AID521]; assay type: functional
[11] = biological target: T2, Induced myeloid leukemia cell differentiation protein Mcl-1; experiment: blockers of MCL1 binding to BIM peptide – biochemical, fluorescence polarization, BIM-BH3 peptide, 1536-well, dose response (AID 2217)
[12] = biological target: T5, Tyrosine-protein phosphatase non-receptor type 22; experiment: PTPN22 lymphoid phosphatase activity blockers – biochemical, fluorescence intensity, uHTS (AID 1779)
Bcl-2-like protein 1 = Bcl-2-like protein 1 (Homo sapiens, UniProt Q07817); experiment: blockers of BCLXL peptide binding – biochemical, fluorescence polarization, 1536-well, selectivity assay for MCL1 inhibitor project, dose response (AID 2218)
Chain of Bcl-2-like protein 1 (Q07817 whole entry): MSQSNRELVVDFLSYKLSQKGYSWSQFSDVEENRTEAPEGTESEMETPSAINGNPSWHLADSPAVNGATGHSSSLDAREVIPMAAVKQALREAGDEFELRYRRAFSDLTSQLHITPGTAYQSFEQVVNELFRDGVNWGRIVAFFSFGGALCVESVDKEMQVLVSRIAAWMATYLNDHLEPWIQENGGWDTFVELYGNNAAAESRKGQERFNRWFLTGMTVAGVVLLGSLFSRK

SUMO E1/E2 = SUMO E1/E2 (Homo sapiens, UniProt P63279+Q9UBE0+Q9UBT2); experiment: SAR analysis of SUMOylation using HTRF in an in-Vitro dose response assay. [Related pubchem assays (depositor defined):AID2006, AID2011, AID2018, AID2069, AID2658]; assay type: functional
Chain of SUMO E1/E2 (Q9UBE0 whole entry): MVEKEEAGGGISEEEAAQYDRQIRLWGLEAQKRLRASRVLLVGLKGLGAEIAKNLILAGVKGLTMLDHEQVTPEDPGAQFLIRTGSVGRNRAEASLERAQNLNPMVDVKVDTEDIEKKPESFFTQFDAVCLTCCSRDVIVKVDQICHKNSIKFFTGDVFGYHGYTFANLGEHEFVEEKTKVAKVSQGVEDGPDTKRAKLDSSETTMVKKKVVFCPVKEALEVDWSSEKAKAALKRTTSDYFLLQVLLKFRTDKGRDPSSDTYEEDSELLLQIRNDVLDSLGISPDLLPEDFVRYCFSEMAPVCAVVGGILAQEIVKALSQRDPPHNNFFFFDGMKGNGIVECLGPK
Chain of SUMO E1/E2 (Q9UBT2 whole entry): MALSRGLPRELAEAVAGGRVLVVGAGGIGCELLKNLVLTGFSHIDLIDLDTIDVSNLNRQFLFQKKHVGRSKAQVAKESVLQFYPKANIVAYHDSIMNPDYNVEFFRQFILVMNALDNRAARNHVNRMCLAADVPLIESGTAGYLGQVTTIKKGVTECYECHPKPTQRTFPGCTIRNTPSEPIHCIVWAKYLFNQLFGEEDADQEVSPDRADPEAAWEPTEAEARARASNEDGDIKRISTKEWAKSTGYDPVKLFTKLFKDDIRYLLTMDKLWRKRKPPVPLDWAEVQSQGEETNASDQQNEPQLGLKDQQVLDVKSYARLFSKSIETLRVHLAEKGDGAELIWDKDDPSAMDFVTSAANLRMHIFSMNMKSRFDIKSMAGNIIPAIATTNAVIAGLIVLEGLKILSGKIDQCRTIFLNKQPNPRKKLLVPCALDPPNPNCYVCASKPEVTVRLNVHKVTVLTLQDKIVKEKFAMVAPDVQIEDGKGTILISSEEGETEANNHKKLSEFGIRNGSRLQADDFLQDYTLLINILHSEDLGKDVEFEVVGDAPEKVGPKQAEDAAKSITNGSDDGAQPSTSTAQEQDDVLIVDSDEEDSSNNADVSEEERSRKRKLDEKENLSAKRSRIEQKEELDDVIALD
Chain of SUMO E1/E2 (P63279 whole entry): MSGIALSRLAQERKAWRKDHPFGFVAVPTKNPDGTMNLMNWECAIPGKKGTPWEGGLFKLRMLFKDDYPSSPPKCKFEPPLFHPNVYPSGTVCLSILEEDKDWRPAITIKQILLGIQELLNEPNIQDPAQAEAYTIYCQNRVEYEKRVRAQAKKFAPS

[13] = biological target: T5, Tyrosine-protein phosphatase non-receptor type 22; experiment: SAR LYP1 Fluorescent Assay using pCAP substrate for In Vitro dose response studies - Set 2. [Related pubchem assays (depositor defined):AID1779, AID1784, AID2135, AID449727]; assay type: functional
[14] = biological target: Tyrosine-protein phosphatase non-receptor type 12 (Homo sapiens, UniProt Q05209); experiment: SAR Selectivity Analysis of small molecule inhibitors of PEST using pCAP in a fluorescence assay. [Related pubchem assays (depositor defined):AID1779, AID1784, AID2135]; assay type: functional
Chain of Tyrosine-protein phosphatase non-receptor type 12 (Q05209 whole entry): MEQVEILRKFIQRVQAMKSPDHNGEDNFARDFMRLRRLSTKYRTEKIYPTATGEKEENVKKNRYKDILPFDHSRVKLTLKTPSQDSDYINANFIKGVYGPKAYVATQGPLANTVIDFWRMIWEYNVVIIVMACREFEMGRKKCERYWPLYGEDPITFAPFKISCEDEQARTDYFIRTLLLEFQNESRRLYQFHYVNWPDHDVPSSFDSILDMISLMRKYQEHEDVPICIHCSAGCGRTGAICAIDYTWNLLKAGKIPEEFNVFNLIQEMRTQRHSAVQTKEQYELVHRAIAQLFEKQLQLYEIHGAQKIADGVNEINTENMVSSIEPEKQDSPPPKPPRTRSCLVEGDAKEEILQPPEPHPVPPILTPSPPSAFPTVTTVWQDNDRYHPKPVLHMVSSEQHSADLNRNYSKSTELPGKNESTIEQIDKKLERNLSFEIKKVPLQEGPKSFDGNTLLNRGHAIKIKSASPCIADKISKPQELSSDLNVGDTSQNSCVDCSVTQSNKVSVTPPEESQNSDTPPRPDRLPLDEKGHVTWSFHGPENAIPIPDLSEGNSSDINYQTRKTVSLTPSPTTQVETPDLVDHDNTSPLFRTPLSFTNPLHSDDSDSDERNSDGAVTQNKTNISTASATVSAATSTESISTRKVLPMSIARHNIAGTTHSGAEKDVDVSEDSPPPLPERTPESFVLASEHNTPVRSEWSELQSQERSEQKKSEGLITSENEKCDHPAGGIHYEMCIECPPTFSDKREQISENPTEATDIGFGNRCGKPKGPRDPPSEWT

[15] = biological target: T5, Tyrosine-protein phosphatase non-receptor type 22; assay type: functional
[16] = biological target: T5, Tyrosine-protein phosphatase non-receptor type 22; experiment: SAR LYP1 Fluorescent Assay using OMFP substrate for In Vitro dose response studies - Set 3. [Related pubchem assays (depositor defined):AID1779, AID1784, AID2140, AID2686]; assay type: functional
[17] = biological target: T6, Tyrosine-protein phosphatase non-receptor type 7; experiment: inhibition of hematopoietic tyrosine phosphatase HePTP – biochemical, set 2, SAR follow-up (AID 449736); assay type: functional
[18] = biological target: T5, Tyrosine-protein phosphatase non-receptor type 22; assay type: functional; remark: listed apart in the source
[19] = biological target: Eukaryotic translation initiation factor 4E (Mus musculus, UniProt P63073); experiment: blockers of eIF4G binding by eIF4E – biochemical, TR-FRET, dose response (AID 855); assay type: functional;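 also: potency for disrupting eIF4E binding to eIF4GI seen as loss of FRET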
Chain of Eukaryotic translation initiation factor 4E (P63073 whole entry): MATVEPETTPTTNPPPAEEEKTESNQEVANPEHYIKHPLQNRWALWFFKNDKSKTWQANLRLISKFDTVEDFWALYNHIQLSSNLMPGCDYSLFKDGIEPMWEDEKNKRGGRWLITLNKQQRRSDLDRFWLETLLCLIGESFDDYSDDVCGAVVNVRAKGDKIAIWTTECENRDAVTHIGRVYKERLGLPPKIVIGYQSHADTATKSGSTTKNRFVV

[20] = biological target: T5, Tyrosine-protein phosphatase non-receptor type 22; experiment: PubChem AID 2135
Nonstructural protein 1 = Nonstructural protein 1 (Influenza A virus, UniProt Q194T2); assay type: functional, Influenza A virus (A/California/07/2009(H1N1))
Chain of Nonstructural protein 1 (Q194T2 whole entry): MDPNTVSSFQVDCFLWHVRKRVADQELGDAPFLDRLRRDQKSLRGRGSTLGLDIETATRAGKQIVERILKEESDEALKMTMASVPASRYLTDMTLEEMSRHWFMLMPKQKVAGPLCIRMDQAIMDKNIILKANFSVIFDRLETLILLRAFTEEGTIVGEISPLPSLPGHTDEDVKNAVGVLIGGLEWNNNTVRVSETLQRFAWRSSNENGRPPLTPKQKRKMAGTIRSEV

[21] = biological target: T5, Tyrosine-protein phosphatase non-receptor type 22; experiment: PubChem AID 2140
[22] = biological target: T5, Tyrosine-protein phosphatase non-receptor type 22; experiment: SAR LYP1 Fluorescent Assay using OMFP substrate for In Vitro dose response studies - Set 2. [Related pubchem assays (depositor defined):AID1779, AID1784, AID2140, AID449726, AID488869]; assay type: functional
Genome polyprotein = Genome polyprotein (dengue virus type 2, UniProt P29990); experiment: flavivirus cap methylation enzyme inhibition – biochemical, confirmation dose response, primary screen (AID 588689); assay type: functional
[23] = biological target: T7, Small ubiquitin-related modifier 2 (Homo sapiens, UniProt P61956); experiment: disruption of SUMO2 interaction with SIM peptide – biochemical, fluorescence polarization, uHTS hits, selectivity assay for SUMO1 interaction inhibitor project, dose response (AID 624385); assay type: functional; details: read-out: IC50_Mean
T7 sequence (P61956 whole entry): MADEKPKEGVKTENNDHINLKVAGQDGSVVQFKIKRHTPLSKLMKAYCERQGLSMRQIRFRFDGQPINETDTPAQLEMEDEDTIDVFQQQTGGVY

[24] = biological target: T8, Small ubiquitin-related modifier 1 (Homo sapiens, UniProt P63165); experiment: SUMO1 protein interaction blockers, potency – biochemical, fluorescence polarization, uHTS hits, dose response (AID 624382); assay type: functional; details: read-out: IC50_Mean
T8 sequence (P63165 whole entry): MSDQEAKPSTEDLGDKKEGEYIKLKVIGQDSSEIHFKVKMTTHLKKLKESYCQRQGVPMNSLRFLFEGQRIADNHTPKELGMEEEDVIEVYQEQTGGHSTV

[25] = biological target: T7, Small ubiquitin-related modifier 2; experiment: SUMO2 binding disruption by SUMO1 hits – biochemical, FRET, human SUMO2, uHTS hits, selectivity assay for SUMO1 interaction inhibitor project, dose response (AID 624384); assay type: functional; details: read-out: IC50_Mean
[26] = biological target: T8, Small ubiquitin-related modifier 1; experiment: SUMO1 protein-protein binding blockers, potency – biochemical, FRET, dose response (AID 624383); assay type: functional; details: read-out: IC50_Mean

COC(=O)c1ccc2nc(Nc3nc4ccc(F)cc4s3)sc2c1
inactive: IC50 [5] 34 µM | IC50 (HEK293) > 20 µM
> 39.8 µM (not active): IC50 [2]
active: EC50 [1] < 0.16 µM | IC50 [3] 1.11 µM | IC50 (Tumor necrosis factor) 0.462 µM | IC50 [4] 1.91 µM

O=P(c1ccccc1)(c1nc2ccccc2s1)N1CCOCC1 (stereo not drawn)
inactive: IC50 [6] > 50 µM | IC50 (Phosphomannomutase 2) > 100 µM

Cc1c(Cl)cccc1NS(=O)(=O)c1ccc2c(c1)C1C=CCC1C(c1ccc(C(=O)O)cc1)N2 (stereo not drawn)
active: IC50 [7] 5.02 µM | IC50 [8] 39.9 µM | IC50 [9] 49.8 µM | IC50 [10] 37.5 µM | IC50 [11] 6.54 µM | IC50 [12] 20.8 µM | IC50 (SUMO E1/E2) 26.9 µM | IC50 [13] 45 µM | IC50 [14] 2.36 µM | IC50 [15] 19.6 µM | IC50 [16] 15.8 µM | IC50 [17] 3.93 µM | IC50 [18] 48.5 µM | IC50 [19] 14.2 µM | IC50 (Nonstructural protein 1) 82.4 µM | IC50 [21] 47.4 µM | IC50 [22] 43.7 µM | IC50 (Genome polyprotein) 62.2 µM | IC50 [23] 12.6 µM | IC50 [24] 5.38 µM | IC50 [25] 5.02 µM
50.8 µM (not active): IC50 (Bcl-2-like protein 1)
inactive: IC50 [20] > 100 µM | IC50 [26] 23.6 µM
